Here are results for eleven molecules from ChEMBL document CHEMBL1201862, “PubChem BioAssay data set” (2004).

Among the test systems are DU-145; PC-3; HCC 2998; COLO 205; NCI-H23; A498; HCT-15; NCI/ADR-RES; SR; SK-OV-3; EKVX; SNB-19; HCT-116; MCF7; SN12C; MDA-MB-231; HT-29; SK-MEL-28; Hs-578T; BT-549.
Holding throughout (experiment): NCI tumour cell line growth inhibition, 48 h

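Five compound concentrations were applied to cells in 96-well plates for 48 hours; endpoints were derived by simple linear interpolation of the resulting dose-response curve. GI50: concentration for 50% inhibition of growth.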 Active and inactive are the calls of the source. No stated cut-off is given here; in the data, active = GI50 up to about 1.1 µM and inactive = higher. Where only a bound is given, the exact number is not on record here.

Regarding `COC(=O)C1(Cc2ccc3c(c2)CCC3)Cc2ccc3c(c2C1=O)CCC3` (centres undefined), the GI50 is 33.6 µM (inactive) with DU-145; 9.02 µM (inactive) in the experiment on PC-3; 6.95 µM (inactive) with HCC 2998; 3.05 µM (inactive) in the experiment with COLO 205; 6.62 µM (inactive) in the experiment on NCI-H23; 5.61 µM (inactive) in the experiment on A498. Besides, the GI50 is 3.66 µM in the experiment with HCT-15; 3.07 µM (inactive) with NCI/ADR-RES; 2.55 µM (inactive) in the experiment on SR; 20.4 µM (inactive) with SK-OV-3; 11.1 µM (inactive) in the experiment with EKVX; 8.91 µM (inactive) with SNB-19. The GI50 is 3.66 µM (inactive) with HCT-116; 3.43 µM (inactive) in the experiment with MCF7; 12.2 µM (inactive) in the experiment on SN12C; 5.78 µM (inactive) with MDA-MB-231; 3.29 µM (inactive) with HT-29; 8.22 µM (inactive) in the experiment on SK-MEL-28. The GI50 is 3.26 µM (inactive) with Hs-578T and 5.68 µM (inactive) in the experiment on BT-549.
As for `CC(=O)OC1C[C@@H](C)C2(CC(c3ccoc3)OC2=O)C2CCC(O)C3(CO3)C12CO` (some centres undefined), the GI50 with DU-145, in the experiment with PC-3, in the experiment with HCC 2998, in the experiment on COLO 205, in the experiment on NCI-H23 and with A498 was > 100 µM (inactive) each time. The GI50 in the experiment with HCT-15 was above 100 µM; in the experiment with NCI/ADR-RES, > 100 µM (inactive); in the experiment on SR it was > 100 µM (inactive); in the experiment on SNB-19, > 100 µM (inactive); in the experiment with HCT-116, > 100 µM (inactive); in the experiment on MCF7, > 100 µM (inactive). The GI50 in the experiment on SN12C, with MDA-MB-231, in the experiment with HT-29, in the experiment on SK-MEL-28, with Hs-578T and in the experiment on BT-549 was > 100 µM (inactive) in each case.
`OCC(Cn1cncn1)(c1ccc(F)cc1F)n1cncn1` (centres undefined): the GI50 is > 100 µM (inactive) in the experiment on DU-145; > 100 µM (inactive) in the experiment on PC-3; > 100 µM (inactive) in the experiment on HCC 2998; > 100 µM (inactive) in the experiment with COLO 205; > 100 µM (inactive) with NCI-H23; 38.5 µM (inactive) in the experiment with A498. The GI50 with HCT-15 was above 100 µM; in the experiment with NCI/ADR-RES it was > 100 µM (inactive); with SR, > 100 µM (inactive); in the experiment on SK-OV-3, > 100 µM (inactive); with SNB-19, > 100 µM (inactive); with HCT-116 it was > 100 µM (inactive). In addition, the GI50 in the experiment on MCF7, in the experiment with SN12C, in the experiment with MDA-MB-231, in the experiment on HT-29, in the experiment with SK-MEL-28 and in the experiment on Hs-578T was > 100 µM (inactive) in each case. Further, in the experiment with BT-549, the GI50 is > 100 µM (inactive).
`Cc1cn(C2CCN(CC3COC(C)(C)O3)O2)c(=O)[nH]c1=O` (centres undefined): the GI50 in the experiment on DU-145 was > 100 µM (inactive); with PC-3, > 100 µM (inactive); in the experiment on COLO 205, > 100 µM (inactive); with NCI-H23, > 100 µM (inactive); in the experiment on A498, > 100 µM (inactive); in the experiment on HCT-15, above 100 µM. For the same molecule, the GI50 with NCI/ADR-RES, in the experiment with SR, in the experiment with SK-OV-3, in the experiment on EKVX, with HCT-116 and with MCF7 was > 100 µM (inactive) throughout. Moreover, the GI50 in the experiment on SN12C, in the experiment on MDA-MB-231, with HT-29, with SK-MEL-28, with Hs-578T and in the experiment on BT-549 was > 100 µM (inactive) each time.
On to `OCC1OC(n2cnc3cccnc32)CC1O` (centres undefined), for which the GI50 in the experiment with DU-145, in the experiment with PC-3, in the experiment on HCC 2998, in the experiment with COLO 205, with NCI-H23 and with A498 was > 100 µM (inactive) each time. Moreover, the GI50 was above 100 µM in the experiment with HCT-15; > 100 µM (inactive) in the experiment on NCI/ADR-RES; > 100 µM (inactive) with SR; > 100 µM (inactive) with EKVX; > 100 µM (inactive) in the experiment on SNB-19; > 100 µM (inactive) in the experiment on HCT-116. Besides, the GI50 in the experiment on MCF7, with SN12C, with MDA-MB-231, with HT-29, with SK-MEL-28 and in the experiment on Hs-578T was > 100 µM (inactive) in each case. The GI50 in the experiment with BT-549 is > 100 µM (inactive).
Take `O=C(NNC(=O)c1ccco1)c1ccco1`: the GI50 is > 100 µM (inactive) with DU-145; > 100 µM (inactive) with PC-3; > 100 µM (inactive) with COLO 205; > 100 µM (inactive) in the experiment with A498; above 100 µM in the experiment on HCT-15; > 100 µM (inactive) with NCI/ADR-RES. For the same molecule, the GI50 in the experiment on SR, in the experiment on SK-OV-3, in the experiment with EKVX, in the experiment on SNB-19, in the experiment with HCT-116 and in the experiment with MCF7 was > 100 µM (inactive) throughout. Besides, the GI50 with SN12C, with MDA-MB-231, with HT-29, in the experiment on SK-MEL-28, with Hs-578T and with BT-549 was > 100 µM (inactive) in each case.
For the molecule `O=C1COc2cc(N3CCN(c4cccc(C(F)(F)F)c4)CC3)ccc2N1`, the GI50 in the experiment with DU-145 was > 100 µM (inactive); in the experiment on PC-3, > 100 µM (inactive); in the experiment with HCC 2998, > 100 µM (inactive); in the experiment on COLO 205, > 100 µM (inactive); in the experiment with NCI-H23, > 100 µM (inactive); with HCT-15, above 100 µM. Besides, the GI50 in the experiment on NCI/ADR-RES, with SR, with SK-OV-3, in the experiment on EKVX, in the experiment on SNB-19 and with HCT-116 was > 100 µM (inactive) throughout. Moreover, the GI50 with MCF7, in the experiment with SN12C, in the experiment on MDA-MB-231, with HT-29, with SK-MEL-28 and with Hs-578T was > 100 µM (inactive) each time. The GI50 with BT-549 is > 100 µM (inactive).
Regarding `Cc1ccc2c(/C=C/c3ccc(N(C)C)cc3)ccc(C(C)C)cc1-2`, the GI50 with DU-145 is > 100 µM (inactive); in the experiment with PC-3, > 100 µM (inactive); with COLO 205, > 100 µM (inactive); in the experiment on NCI-H23, > 100 µM (inactive); in the experiment on A498 it was 83.4 µM (inactive); with NCI/ADR-RES it was > 100 µM (inactive). The GI50 in the experiment on SR was 27.9 µM (inactive); in the experiment on SK-OV-3, > 100 µM (inactive); in the experiment on EKVX it was 94.2 µM (inactive); in the experiment on HCT-116, > 100 µM (inactive); in the experiment on MCF7 it was > 100 µM (inactive); with SN12C, > 100 µM (inactive). Further, the GI50 in the experiment with MDA-MB-231 is > 100 µM (inactive); with HT-29, 49.1 µM (inactive); with SK-MEL-28, > 100 µM (inactive); with Hs-578T it was > 100 µM (inactive); in the experiment on BT-549, > 100 µM (inactive).
In the case of `C=C1C(=O)OC2CC(=C)C3CC=C(C)C3CC12` (centres undefined), the GI50 is > 10 µM (inactive) in the experiment with DU-145; 14.9 µM (inactive) in the experiment with PC-3; 21.1 µM (inactive) in the experiment with HCC 2998; 17.9 µM (inactive) in the experiment with COLO 205; 53.6 µM (inactive) with A498; 17.5 µM with HCT-15. For the same molecule, the GI50 was 35.5 µM (inactive) with NCI/ADR-RES; 18.1 µM (inactive) in the experiment on SR; 30.7 µM (inactive) with SK-OV-3; 64.6 µM (inactive) with EKVX; 22.9 µM (inactive) with SNB-19; 18.4 µM (inactive) in the experiment on HCT-116. Also, the GI50 in the experiment with MCF7 was 20.1 µM (inactive); with SN12C it was 16.2 µM (inactive); in the experiment with MDA-MB-231 it was 21.5 µM (inactive); in the experiment with HT-29, 13 µM (inactive); in the experiment with SK-MEL-28, 23.1 µM (inactive); in the experiment on Hs-578T it was 44.7 µM (inactive). Also, the GI50 in the experiment with BT-549 is 14.7 µM (inactive).
For `O=C(NC(=S)Nc1ccc([N+](=O)[O-])cc1)c1ccc2c(c1)Sc1ccccc1O2`, the GI50 in the experiment on DU-145 is > 100 µM (inactive); in the experiment with PC-3, > 100 µM (inactive); with COLO 205, > 100 µM (inactive); in the experiment on NCI-H23, > 100 µM (inactive); in the experiment on A498, > 100 µM (inactive); in the experiment with HCT-15 it was above 100 µM. Besides, the GI50 is > 100 µM (inactive) in the experiment with NCI/ADR-RES; > 100 µM (inactive) in the experiment with SR; 77.1 µM (inactive) with SK-OV-3; 53.3 µM (inactive) in the experiment on SNB-19; > 100 µM (inactive) in the experiment on HCT-116; > 100 µM (inactive) in the experiment on MCF7. Also, the GI50 in the experiment on SN12C is > 100 µM (inactive); with MDA-MB-231, > 100 µM (inactive); in the experiment with HT-29, > 100 µM (inactive); in the experiment on SK-MEL-28, > 100 µM (inactive); in the experiment with Hs-578T, 32.8 µM (inactive); in the experiment on BT-549 it was > 100 µM (inactive).
Take `O=S(=O)(O)c1ccc2c(/N=N\c3cccc4ccccc34)c(O)c(S(=O)(=O)O)cc2c1`: the GI50 with DU-145, with PC-3, with HCC 2998, in the experiment with COLO 205, with NCI-H23 and with A498 was > 100 µM (inactive) each time. The GI50 is above 100 µM in the experiment with HCT-15; > 100 µM (inactive) in the experiment with NCI/ADR-RES; > 48.6 µM (inactive) in the experiment on SR; > 100 µM (inactive) with SK-OV-3; > 100 µM (inactive) in the experiment with EKVX; > 100 µM (inactive) in the experiment with SNB-19. Further, the GI50 in the experiment on HCT-116, in the experiment on MCF7, in the experiment with MDA-MB-231, in the experiment with HT-29, in the experiment on SK-MEL-28 and in the experiment with Hs-578T was > 100 µM (inactive) each time. Besides, the GI50 with BT-549 is > 100 µM (inactive).
